Laboratory results published in the SangsterLogP compilation.

Test: method code SF, from DOI: 10.1021/jm101405t, PMID: 21319751
Conditions: pH 7.4

Row | logD | Compound
1 | 1.94 | OCCc1ccc(OCc2cccc(-c3ccccn3)c2)cc1
2 | 3.41 | OCCc1ccc(OCc2ccc(-c3ccccc3)cc2)cc1
3 | 3.25 | OCCc1ccc(OCc2ccccc2-c2ccccc2)cc1
4 | 3.37 | OCCc1ccc(OCc2cccc(-c3ccccc3)c2)cc1
5 | 3.63 | OCCc1ccc(-c2cccc(OCCc3ccccc3)c2)cc1
6 | 3.32 | OCCc1ccc(OCc2ccccc2Oc2ccccc2)cc1
7 | 3.22 | OCCc1ccc(OCc2cccc(-c3cccs3)c2)cc1
8 | 1.96 | OCCc1ccc(OCc2ccccc2)cc1
9 | 2.11 | OCCc1ccc(OCc2cccc(-c3nccs3)c2)cc1
